The text below walks through data of patent publication US10059669B2, “2-amino-3,5-difluoro-3,6-dimethyl-6-phenyl-3,4,5,6-tetrahydropyridines as BACE1 inhibitors for treating alzheimer's disease” (H. Lundbeck A/S, priority 2014, dated 2018).

A word on the Ki: it is a dissociation constant, usually derived from enzyme kinetics or from competition with a known ligand. What is called efflux ratio is the permeability from basolateral to apical divided by that in the opposite direction, in the common usage.

Data set [1] is described as follows: Bioanalysis of brain and plasma samples (exposure, UPLC-MS/MS). Format: in vivo, rat. Particulars: male, Sprague Dawley, po, 3 hours post dose; for Kp at 3 h: brain and plasma, Rat, read-out: Brain/Plasma ratio; for concentration at 3 h: read-out: Exp. As to the method: Young adult Male Sprague Dawley rats of approximately 250 g weight were purchased from Charles River and received 0-30 mg/kg of vehicle (10% HP betaCD+1M MeSO4, pH 2.5) or test compounds (dissolved in vehicle) only by oral gavage (p.o). The compounds are dosed at a volume of 5 ml/kg. Cohorts of 5-10 animals were established for each treatment condition.
At T=180 minutes after initial dosing the animals were stunned and decapitated with a guillotine. Trunk-blood was sampled in EDTA coated tubes after decapitation of the animal. The blood was centrifuged at 2200G at 4° C. for 15 minutes and the plasma was collected and frozen at −80° C. The blood was aliquoted for Aβ ELISA and DMPK analysis. Immediately following sacrifice, the brain was extracted and split into 2 halves. The right hemibrains were snap frozen on dry ice and stored at −80° C. The left half was dissected; with the front forebrain taken for Aβ ELISA and the remainder used for DMPK analysis. These samples were also snap frozen on dry ice and stored at −80° C. until use for analysis. […]
TC was determined in plasma and brain homogenate using UltraPerformance LC® (UPLC®) chromatography followed by tandem-MS (MS/MS) detection.
Brain homogenate was prepared by homogenizing the brain 1:4 (v/v) with water:2-propanol:DMSO (50:30:20 v/v/v) followed by centrifugation and collection of the supernatant. Calibration standards and QC samples were prepared using a Hamilton robot. 150 μL of ISTD in acetonitrile (1 ng/mL ISTD) was added to 25 μL of calibration standards, QC samples and test samples (plasma and brain homogenate) using a Biomek robot. After centrifugation (6200 g, 4° C., 20 min) 100 μL supernatant from each sample was transferred to a new plate and mixed with 100 μL water with 0.1% formic acid using a Biomek robot (method file InVivo transfer). After a quick centrifugation (6200 g, 4° C., 5 min) the samples were placed in the auto-sampler.
MS/MS detection was done with an Applied Biosystems Sciex API 4000 instrument in positive-ion electrospray ionisation mode. TC and ISTD were detected at a parent>daughter mass to charge ratio (m/z). Nitrogen was used for the nebulizer and collision gases. The peak area correlated linearly with the plasma and brain concentration of the analytes in the range of 1.00-1000 ng/mL plasma and 5.00-5000 ng/g brain (corrected for dilution). If the plasma/brain sample drug concentration was above 1000 ng/mL or 5000 ng/g, the sample was diluted appropriately in blank plasma/blank brain homogenate before analysis.

Another data set addresses BACE1 (Homo sapiens (Human), UniProt P56817). In words: BACE1 binding assay (SPA-based radioligand binding). Particulars: pH 4.5, 10 nM radioligand, Ki calculated from IC50. How it is done:
The binding assay was performed as SPA-based assay using a biotinylated form of human BACE1 recombinantly expressed and subsequently purified from Freestyle HEK293 cells. The binding assay was run in a 50 mM sodium acetate buffer, pH 4.5 containing 50 mM NaCl and 0.03% Tween-20 in white clear bottom 384 plates (Corning #3653). 10 nM (final concentration) radioligand ([^3H]—N-((1S,2R)-1-benzyl-3-cyclopropylamino-2-hydroxy-propyl)-5-(methanesulfonyl-methyl-amino)-N—((R)-1-phenyl-ethyl)-isophthalamide) (TRQ11569 purchased from GE Healthcare) was mixed with test compound at a given concentration, 6 nM (final concentration) human BACE1 and 25 μg Streptavidin coated PVT core SPA beads (RPNQ0007, GE Healthcare Life Sciences) in a total volume of 40 μl. Several concentrations of each test compound were tested in the assay for IC50 determination. The plates were incubated for one hour at room temperature and counted in a Wallac Trilux counter. Total and non-specific binding were determined using buffer and 1 μM (final concentration) of the high affinity BACE1 reference inhibitor (S)-6-[3-chloro-5-(5-prop-1-ynyl-pyridin-3-yl)-thiophen-2-yl]-2-imino-3,6-dimethyl-tetrahydro-pyrimidin-4-one, respectively. For each test compound, a IC50 value (the concentration mediating 50% inhibition of the specific binding of the radioligand) was determined from concentration-response curve and used to calculate the Ki from the equation Ki=IC50/(1+L/Kd), where L and Kd are the final concentration of the radioligand used in the assay and the dissociation constant of the radioligand, respectively. The Kd of the radioligand was determined from saturation binding experiments.

A further data set concerns P-gp (MDR1). In words: MDCK-MDR1 assay (permeability, efflux ratio). The settings on record: dog, Papp BA/Papp AB, 60-minute incubation, Pgp substrate when ≥2. It counts as in vitro ADME. How it is done: The permeability of the test compounds was assessed in MDCK-MDR1 cells that were cultured to confluency (4-6 days) in a 96 transwell plate. Test compounds were diluted with the transport buffer (HBSS+1% BSA) to a concentration of 0.5 μM and applied to the apical or basolateral side of the cell monolayer. Permeation of the test compounds from A to B direction or B to A direction was determined in triplicate over a 60-minute incubation time at 37° C. and 5% CO2 with a relative humidity of 95%. Test compounds were quantified by LC-MS/MS analysis based on the peaks area ratios of analyte/IS in both the receiver and donor wells of the transwell plate.
The apparent permeability coefficient Papp (cm/s) was calculated using the equation: Papp=(dCr/dt)×Vr/(A×C0)
Where dCr/dt is the cumulative concentration of compound in the receiver chamber as a function of time (M/s); Vr is the solution volume in the receiver chamber (0.05 mL on the apical side; 0.25 mL on the basolateral side); A is the surface area for the transport, i.e. 0.0804 cm^2 for the area of the monolayer; C0 is the initial concentration in the donor chamber (VIM).
Compounds are classified Pgp substrates when efflux ratio (Papp BA/Papp AB) is ≥2.

The structures appear in SMILES notation. Where two headings read alike, the source gives them in different places.

Chain of BACE1 (P56817 46-501): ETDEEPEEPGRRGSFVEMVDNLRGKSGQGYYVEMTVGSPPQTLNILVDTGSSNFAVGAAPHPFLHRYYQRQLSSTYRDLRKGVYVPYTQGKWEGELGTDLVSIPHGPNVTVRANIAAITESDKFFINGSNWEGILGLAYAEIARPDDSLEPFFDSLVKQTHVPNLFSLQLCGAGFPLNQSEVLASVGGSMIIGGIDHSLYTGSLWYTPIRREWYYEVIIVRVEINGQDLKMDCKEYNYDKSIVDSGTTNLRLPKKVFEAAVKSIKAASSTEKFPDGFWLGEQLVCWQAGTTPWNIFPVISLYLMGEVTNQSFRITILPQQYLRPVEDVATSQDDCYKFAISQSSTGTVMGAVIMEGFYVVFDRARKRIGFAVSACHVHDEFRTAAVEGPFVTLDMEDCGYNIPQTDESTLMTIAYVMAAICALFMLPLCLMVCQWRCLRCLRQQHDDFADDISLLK

As for `[2H]C([2H])([2H])Oc1ccc(C(=O)Nc2ccc(F)c([C@@]3(C)N=C(N)[C@@](C)(F)C[C@@H]3F)c2)nc1` [Compound 19, N-(3-((2R,3S,5S)-6-amino-3,5-difluoro-2,5-dimethyl-2,3,4,5-tetrahydropyridin-2-yl)-4-fluorophenyl)-5-(methoxy-d3)picolinamide], the Kp at 3 h in data set [1] (10 mg/kg p.o.) came to 2.2; in data set [1] (30 mg/kg p.o.) it was 2.3. Further, the concentration at 3 h worked out at 1020 ng/g in data set [1] (Brain Rat, 10 mg/kg p.o.); 2770 ng/g in data set [1] (Brain Rat, 30 mg/kg p.o.); 473 ng/g in data set [1] (Plasma Rat, 10 mg/kg p.o.); 1200 ng/g in data set [1] (Plasma Rat, 30 mg/kg p.o.). The Ki at BACE1 was 20 nM. Moreover, in the data set with P-gp (MDR1), the efflux ratio at 60 min, 0.5 μM was determined as 0.79.
As for `[2H]C([2H])([2H])Oc1cnc(C(=O)Nc2ccc(F)c([C@@]3(C)N=C(N)[C@@](C)(F)C[C@@H]3F)c2)cn1` [Compound 20, N-(3-((2R,3S,5S)-6-amino-3,5-difluoro-2,5-dimethyl-2,3,4,5-tetrahydropyridin-2-yl)-4-fluorophenyl)-5-(methoxy-d3)pyrazine-2-carboxamide], in data set [1] (3 mg/kg p.o.), the Kp at 3 h was determined as 2.2. Besides, the concentration at 3 h was 610 ng/g in data set [1] (Brain Rat, 3 mg/kg p.o.) and 272 ng/g in data set [1] (Plasma Rat, 3 mg/kg p.o.). For the same compound, at BACE1, the inhibition constant Ki is 21 nM. Moreover, the efflux ratio at 60 min, 0.5 μM in the data set on P-gp (MDR1) turned out to be 0.85.
As to `COc1ccc(C(=O)Nc2ccc(F)c([C@@]3(C)N=C(N)[C@@](C)(F)C[C@@H]3F)c2)nc1` [Compound 3, N-(3-((2R,3S,5S)-6-amino-3,5-difluoro-2,5-dimethyl-2,3,4,5-tetrahydropyridin-2-yl)-4-fluorophenyl)-5-methoxypicolinamide], the figures for the Kp at 3 h in data set [1] (10 mg/kg p.o.) and in data set [1] (30 mg/kg p.o.) were 1.4 and 0.83, respectively. In addition, the concentration at 3 h in data set [1] (Brain Rat, 10 mg/kg p.o.) turned out to be 671 ng/g; in data set [1] (Brain Rat, 30 mg/kg p.o.) it was 1510 ng/g; in data set [1] (Plasma Rat, 10 mg/kg p.o.), 489 ng/g; in data set [1] (Plasma Rat, 30 mg/kg p.o.), 1830 ng/g. On BACE1, the Ki is 23 nM. The efflux ratio at 60 min, 0.5 μM with P-gp (MDR1) stood at 0.96.
